# Read-outs that look alike come from different tables or passages of the source. Starred links: 1 amine or outer side, 2 acyl side, 3 side chain; linkers in the order of their positions; H or OH if unused. Positions of bridges follow the written chain, without caps; N, C: chain ends. Residues, ends and D or L forms follow the SMILES beside them. Groups on a side chain read outwards from the residue. No end group written: not given here. *: point of attachment. C20 diacid = O=C(O)CCCCCCCCCCCCCCCCCCC(=O)*; γGlu = O=C(O)[C@H](CCC(=O)[*:2])N[*:1]
# What was measured:
# [1] = Half-life of compound A2 in the rat; details: in vivo, read-out: 0% of compound A2 (half-life)
# Method: (§1) Following at least 1 week of insulin dose stabilization, animals are entered into each of 5 supplemental treatments comprising administration of the long-acting amylin agonist, compound A2, at doses of 1, 3, 10, 30 or 100 μg/day as a single daily injection, in addition to the fixed daily Levemir dose. (Alternatively, these studies could utilize relatively short-acting pramlintide as an amylin analog.) The […] is 32-37 hours in the rat, similar to that of albumin-bound insulin detemir. Daily dosing of each therefore maintains relatively constant concentrations of each, and a relatively ratio of concentrations.
# [2] = in vivo; cited from earlier work
# [3] = cited from earlier work
# [4] = cited from earlier work; remark: listed apart in the source
# [5] = format: in vivo, rat (male Wistar); design: hypo avoidance index (benefit index; below 70 mg/dL weighted 5× vs over 180 mg/dL): scale not given here; hazard index: time above 180 mg/dL (hyperglycemic) / benefit index: time in range (above 70, below 180 mg/dL): unit not given here; details: for benefit index: time in range (above 70, below 180 mg/dL) / hazard index: time above 180 mg/dL (hyperglycemic) / hypo avoidance index (benefit index; below 70 mg/dL weighted 5× vs over 180 mg/dL): STZ rat, A2 0 μg/kg/day
# Source text: Male Wistar rats are implanted intraperitoneally (sensor in abdominal aorta) with an HD-XG continuous glucose monitor (Data Sciences, St Paul, Minn.) (Brockway, Tiesma et al. 2015). This system allows up to 8 weeks of continuous capture of blood glucose concentrations.
# Upon recovery from surgery and resumption of normal food intake, capture of glucose readings begins so as to include at least 4 days of non-diabetic record for each rat. To induce insulinopenic (type 1) diabetes, rats are fasted overnight and administered an intravenous dose of streptozotocin (STZ) of 60 mg/kg (Gajdosik, Gajdosikova et al. 1999). Glucose readings from the telemetry system are used to enhance survival post-STZ, by s.c. glucose supplementation in the event of hypoglycemia that often accompanies an initial release of insulin following β-cell toxicity. The telemetry is then used to affirm hyperglycemia (mean plasma glucose >300 mg/dL), and to determine if a second STZ treatment is necessary for rats that are not sufficiently hyperglycemic.
# Upon becoming hyperglycemic, animals are treated daily with a sliding-scale of a long-acting insulin (insulin detemir, Levemir NOVO) so as to eliminate urinary ketones, but maintain 5% glycosuria, as determined by daily KETOSTIX and GLUCOSTIX testing, respectively (Young, Crocker et al. 1991).
# Animals are assigned to one of 3 cohorts of insulin dosing (n=5/cohort). One cohort is defined as that necessary to attain −ve urinary ketones and +ve urinary glucose, as just described, but not greater than a total dose of 2 U/day. A second cohort is a high insulin dose cohort, 3× greater than cohort 1. A third cohort is one where insulin dose is 50% of that of cohort 1.
# as §1
# Each dose level of compound A2 is maintained for 1 week, during which glucose data is captured via telemetry. The order in which doses of compound A2 are changed is determined by a 5×5 orthogonal latin square. That is, each animal receives each dose of compound A2, but in an order that is unique relative to that of the other 4 animals in the same insulin cohort. This treatment balances out time-dependent or order-dependent changes in metabolic status of each animal, such as regeneration of insulin secretory capacity, and accommodation to the effects of an amylin agonist.
# Plasma glucose values from the final 4 days of each insulin/A2 combination are aggregated and analyzed according to frequency of occurrence (cumulative distributions). Analogous to the time-in-range (TIR) assessment of clinical benefit (sometimes termed “clinical utility”) in human diabetes trials (Beck, Bergenstal et al. 2018), glucose values are categorized within bins (<70, 70-180, and >180 mg/dL). Further cuts (>250 mg/dL) are also made. Parametric descriptors of glucose values are also derived for each combination (mean and SD values, linear and logarithmic, where data are not normal but are log-normal).
# Higher benefit (i.e., utility) is indicated when TIR is greatest, with the proviso that values below 70 mg/dL are not more frequent. Higher benefit is also indicated when the SD for the distribution of glucose values is least.
Molecule,Duration ([3]; in vivo),Peak ([3]; in vivo) [h],Onset ([3]; in vivo) [min],further results
CC[C@H](C)[C@H](NC(=O)[C@@H]1CCCN1C(=O)CNC(=O)[C@H](Cc1ccccc1)NC(=O)[C@H](CC(N)=O)NC(=O)[C@H](CC(N)=O)NC(=O)[C@H](CO)NC(=O)[C@H](CO)NC(=O)[C@H](CCCCN)NC(=O)[C@H](Cc1c[nH]cn1)NC(=O)[C@H](CC(C)C)NC(=O)[C@H](CCC(=O)O)NC(=O)[C@H](CC(N)=O)NC(=O)[C@H](C)NC(=O)[C@H](CC(C)C)NC(=O)[C@H](CCCNC(=N)N)NC(=O)[C@H](CCC(N)=O)NC(=O)[C@@H](NC(=O)[C@H](C)NC(=O)[C@@H]1CSSC[C@H](NC(=O)[C@@H](N)CCCCNC(=O)CC[C@H](NC(=O)CC[C@H](NC(=O)CCCCCCCCCCCCCCCCCCC(=O)O)C(=O)O)C(=O)O)C(=O)N[C@@H](CC(N)=O)C(=O)N[C@@H]([C@@H](C)O)C(=O)N[C@@H](CO)C(=O)N[C@@H]([C@@H](C)O)C(=O)N1)[C@@H](C)O)C(=O)N[C@@H](CC(C)C)C(=O)N1CCC[C@H]1C(=O)N1CCC[C@H]1C(=O)N[C@H](C(=O)N[C@@H](CCCCN)C(=O)N[C@H](C(=O)NCC(=O)N[C@@H](CO)C(=O)N[C@@H](CCC(=O)O)C(=O)N[C@H](C(=O)N[C@@H](Cc1ccc(O)cc1)C(N)=O)[C@@H](C)O)C(C)C)[C@@H](C)O [Compound A2] (H-K([γGlu-γGlu-C20 diacid])CNTSTCATQRLANELHKSSNNFGPILPPTKVGSETY-NH2; disulfide 2-7),–,–,–,half-life [1]: 32 to 37 h
Davalintide,–,–,–,half-life [2]: about 26 minutes
aspart [Fiasp ® (aspart)],3 to 5 h,1 to 3,–,"Onset, sooner than Rapid Acting Insulins ([3]; relative to rapid-acting insulins): about 5 mins"
aspart [Novo's Novolog ® (aspart)],3 to 5 h,0.667 to 0.833,10 to 20,–
glulisine [Sanofi's Apidra ® (glulisine)],–,0.5 to 1.5,20 to 30,–
human amylin: 37-residue polypeptide hormone co-secreted with insulin from pancreatic β-cells (SEQ ID NO: 5) (KCNTATCATQRLANFLVHSSNNFGAILSSTNVGSNTY; disulfide 2-7; listed as Homo sapiens),–,–,–,half-life ([4]; in humans): about 13 minutes; half-life in serum ([4]; serum): about 13 minutes
insulin degludec [Novo's Tresiba ® (insulin degludec)],42 h,–,30 to 90,Peak ([3]; result in words): No peak time
insulin detemir [Novo's Levemir ® (insulin detemir)],Up to 24 hours,6 to 8,60 to 120,"benefit index: time in range (above 70, below 180 mg/dL) ([5]; insulin 1 U/day): 39.5; hazard index: time above 180 mg/dL (hyperglycemic) ([5]; insulin 1 U/day): 60.2; hypo avoidance index (benefit index; below 70 mg/dL weighted 5× vs over 180 mg/dL) ([5]; insulin 1 U/day): 33.8; benefit index: time in range (above 70, below 180 mg/dL) ([5]; insulin 2 U/day): 64.9; hazard index: time above 180 mg/dL (hyperglycemic) ([5]; insulin 2 U/day): 29.4; hypo avoidance index (benefit index; below 70 mg/dL weighted 5× vs over 180 mg/dL) ([5]; insulin 2 U/day): 41.6; benefit index: time in range (above 70, below 180 mg/dL) ([5]; insulin 6 U/day): 78.9; hazard index: time above 180 mg/dL (hyperglycemic) ([5]; insulin 6 U/day): 2.8; hypo avoidance index (benefit index; below 70 mg/dL weighted 5× vs over 180 mg/dL) ([5]; insulin 6 U/day): 5.7; blood glucose values within range 70-180 mg/dL (TIR) ([5]; post-STZ rats, 2 U/day Levemir, no A2): 64.9%; blood glucose values <70 mg/dL ([5]; rat, in vivo): 5.8%; proportion of time spent below 70 mg/dL ([5]; rat, in vivo): markedly increase"
insulin glargine,20 to 24 h,–,–,Peak ([3]; result in words): No peak time.
lispro [Lilly's Humalog ® (lispro)],3 to 5 h,0.5 to 1.5,15 to 30,–
recombinant insulin [Novo's Novolin ® (recombinant insulin)],5 to 8 h,2 to 5,–,–
"velosulin: human insulin for use in an insulin pump, short-acting",2 to 3 h,1 to 2,–,–
